Results taken from US8158631B2, “Heterocyclic antiviral compounds” (Roche Palo Alto LLC, priority 2009, dated 2012).

How the values were obtained:
[1] = target: T1, HCV polymerase (NS5B570n-Con1) (Hepatitis C virus genotype 1b, UniProt Q9WMX2); test: HCV NS5B RNA polymerase activity (HCV Polymerase Assay); format: biochemical, HCV Con1 strain
T1 construct: contains a 21 amino acid deletion at the C-terminus relative to the full-length HCV polymerase; made in house; host or cells: E. coli strain BL21(DE) pLysS, plasmid pET17b
Protocol: The enzymatic activity of HCV polymerase (NS5B570n-Con1) was measured as the incorporation of radiolabeled nucleotide monophosphates into acid insoluble RNA products. Unincorporated radiolabeled substrate was removed by filtration and scintillant was added to the washed and dried filter plate containing radiolabeled RNA product. The amount of RNA product generated by NS5B570-Con1 at the end of the reaction was directly proportional to the amount of light emitted by the scintillant.
The N-terminal 6-histidine tagged HCV polymerase, derived from HCV Con1 strain, genotype 1b (NS5B570n-Con1) contains a 21 amino acid deletion at the C-terminus relative to the full-length HCV polymerase and was purified from E. coli strain BL21(DE) pLysS. The construct, containing the coding sequence of HCV NS5B Con1 (GenBank accession number AJ242654) was inserted into the plasmid construct pET17b, downstream of a T7 promoter expression cassette and transformed into E. coli. A single colony was grown overnight as a starter culture and later used inoculate 10 L of LB media supplemented with 100 μg/mL ampicillin at 37° C. Protein expression was induced by the addition of 0.25 mM isopropyl-β-D-thiogalactopyranoside (IPTG) when optical density at […] of the culture was between 0.6 and 0.8 and cells were harvested after 16 to 18 h at 30° C. NS5B570n-Con1 was purified to homogeneity using a three-step protocol including subsequent column chromatography on Ni-NTA, SP-Sepharose HP and Superdex 75 resins.
Each 50 μL enzymatic reaction contained 20 nM RNA template derived from the complementary sequence of the Internal Ribosome Entry Site (cIRES), 20 nM NS5B570n-Con1 enzyme, 0.5 μCi of tritiated UTP (Perkin Elmer catalog no. TRK-412; specific activity: 30 to 60 Ci/mmol; stock solution concentration from 7.5×10^−5 M to 20.6×10^−6 M), 1 μM each ATP, CTP, and GTP, 40 mM Tris-HCl pH 8.0, 40 mM NaCl, 4 mM DTT (dithiothreitol), 4 mM MgCl2, and 5 μL of compound serial diluted in DMSO. Reaction mixtures were assembled in 96-well filter plates (cat #MADVNOB, Millipore Co.) and incubated for 2 h at 30° C. Reactions were stopped by addition of 10% final (v/v) trichloroacetic acid and incubated for 40 min at 4° C. Reactions were filtered, washed with 8 reaction volumes of 10% (v/v) trichloroacetic acetic acid, 4 reaction volumes of 70% (v/v) ethanol, air dried, and 25 μL of scintillant (Microscint 20, Perkin-Elmer) was added to each reaction well.
The amount of light emitted from the scintillant was converted to counts per minute (CPM) on a Topcount® plate reader (Perkin-Elmer, Energy Range: Low, Efficiency Mode Normal, Count Time: 1 min, Background Subtract: none, Cross talk reduction: Off).
Data was analyzed in Excel® (Microsoft®) and ActivityBase® (Idbs®). The reaction in the absence of enzyme was used to determine the background signal, which was subtracted from the enzymatic reactions. Positive control reactions were performed in the absence of compound, from which the background corrected activity was set as 100% polymerase activity. All data was expressed as a percentage of the positive control.
The compound concentration at which the enzyme-catalyzed rate of RNA synthesis was reduced by 50% (IC50) was calculated by fitting equation (i) to the data where“Y”
[formula] corresponds to the relative enzyme activity (in %), “% Min” is the residual relative activity at saturating compound concentration, “% Max” is the relative maximum enzymatic activity, “X” corresponds to the compound concentration, and “S” is the Hill coefficient (or slope).

HCV = details: cited from earlier work

SMILES	IC50 [1]	melting point	patients with serum amino transferase levels reduced to normal (HCV; monotherapy)	effect on serum levels of HCV-RNA (HCV; sole treatment / monotherapy)
COc1c(/C=C/c2ccc(NS(C)(=O)=O)cc2)cc(N2CCCNC2=O)cc1C(C)(C)C [Compound I-2, N-(4-{(E)-2-[3-tert-Butyl-2-methoxy-5-(2-oxo-tetrahydro-pyrimidin-1-yl)-phenyl]-vinyl}-phenyl)-methanesulfonamide]	10 nM	–	–	–
COc1c(CCc2ccc(NS(C)(=O)=O)cc2)cc(N2CCCNC2=O)cc1C(C)(C)C [Compound I-3, N-(4-{2-[3-tert-Butyl-2-methoxy-5-(2-oxo-tetrahydro-pyrimidin-1-yl)-phenyl]-ethyl}-phenyl)-methanesulfonamide]	13 nM	244 to 246 °C	–	–
COc1c(CCc2ccc(NS(C)(=O)=O)cc2)cc(N2CCNC2=O)cc1C(C)(C)C [Compound I-4]	32 nM	229 to 231 °C	–	–
COc1c(CCc2ccc(NS(C)(=O)=O)cc2)cc(N2C(=O)CCNC2=O)cc1C(C)(C)C [Compound I-6, N-(4-{2-[3-tert-Butyl-5-(2,6-dioxo-tetrahydro-pyrimidin-1-yl)-2-methoxy-phenyl]-ethyl}-phenyl)-methanesulfonamide]	63 nM	–	–	–
COc1c(CCc2ccc(NS(C)(=O)=O)cc2)cc(N2C(=O)CNC2=O)cc1C(C)(C)C [Compound I-7, N-(4-{2-[3-tert-Butyl-5-(2,5-dioxo-imidazolidin-1-yl)-2-methoxy-phenyl]-ethyl}-phenyl)-methanesulfonamide]	15 nM	230 to 231 °C	–	–
COc1c(/C=C/c2ccc(NS(C)(=O)=O)cc2)cc(N2CCCCC2=O)cc1C(C)(C)C [Compound I-8, N-(4-{(E)-2-[3-tert-Butyl-2-methoxy-5-(2-oxo-piperidin-1-yl)-phenyl]-vinyl}-phenyl)-methanesulfonamide]	16 nM	247 to 249 °C	–	–
COc1c(/C=C/c2ccc(NS(C)(=O)=O)cc2)cc(-n2ccccc2=O)cc1C(C)(C)C [Compound I-9, N-(4-{(E)-2-[3-tert-Butyl-2-methoxy-5-(2-oxo-2H-pyridin-1-yl)-phenyl]-vinyl}-phenyl)-methanesulfonamide]	1 nM	254 to 256 °C	–	–
COc1c(/C=C/c2ccc(NS(C)(=O)=O)cc2)cc(-n2cc(F)ccc2=O)cc1C(C)(C)C [Compound I-10]	5 nM	248 to 250 °C	–	–
COc1c(/C=C/c2ccc(NS(C)(=O)=O)cc2)cc(-n2ncccc2=O)cc1C(C)(C)C [Compound I-11]	0.38 nM	260 to 262 °C	–	–
COc1c(/C=C/c2ccc(NS(C)(=O)=O)cc2)cc(-n2cnccc2=O)cc1C(C)(C)C [Compound I-12]	1 nM	202 to 204 °C	–	–
COC(=O)c1cc(NS(C)(=O)=O)ccc1/C=C/c1cc(-n2ccncc2=O)cc(C(C)(C)C)c1OC [Compound I-15, 2-{(E)-2-[3-tert-Butyl-2-methoxy-5-(2-oxo-2H-pyrazin-1-yl)-phenyl]-vinyl}-5-methanesulfonylamino-benzoic acid methyl ester]	1 nM	–	–	–
COc1c(/C=C/c2ccc(NS(C)(=O)=O)cc2C(=O)O)cc(-n2ccncc2=O)cc1C(C)(C)C [Compound I-16]	0.39 nM	176 to 179 °C	–	–
COc1c(/C=C/c2ccc(NS(C)(=O)=O)cc2CO)cc(-n2ccncc2=O)cc1C(C)(C)C [Compound I-17, N-(4-{(E)-2-[3-tert-Butyl-2-methoxy-5-(2-oxo-2H-pyrazin-1-yl)-phenyl]-vinyl}-3-hydroxymethyl-phenyl)-methanesulfonamide]	0.49 nM	238 to 240 °C	–	–
COc1c(/C=C/c2ccccc2C(=O)O)cc(-n2ccccc2=O)cc1C(C)(C)C [Compound I-18]	5 nM	–	–	–
COc1c(/C=C/c2ccccc2C(=O)O)cc(-n2ccncc2=O)cc1C(C)(C)C [Compound I-19, 2-{(E)-2-[3-tert-Butyl-2-methoxy-5-(2-oxo-2H-pyrazin-1-yl)-phenyl]-vinyl}-benzoic acid]	2 nM	–	–	–
COc1c(CCc2ccc(NS(C)(=O)=O)cc2)cc(N2CCCS2(=O)=O)cc1C(C)(C)C [Compound I-20]	83 nM	83 to 86 °C	–	–
COc1c(/C=C/c2ccc(NS(C)(=O)=O)cc2C(=O)O)cc(N2CCCNC2=O)cc1C(C)(C)C [Compound I-21]	0.23 nM	275 to 278 °C	–	–
COc1c(-c2cc3ccc(NS(C)(=O)=O)cc3c(=O)o2)cc(-n2ccncc2=O)cc1C(C)(C)C [Compound I-22]	3 nM	272 to 275 °C	–	–
COc1c(/C=C/c2ccc(NS(C)(=O)=O)cc2)cc(-n2ccc(=O)[nH]c2=O)c2c1C(C)(C)CO2 [Compound I-23, N-(4-{(E)-2-[7-(2,4-Dioxo-3,4-dihydro-2H-pyrimidin-1-yl)-4-methoxy-3,3-dimethyl-2,3-dihydro-benzofuran-5-yl]-vinyl}-phenyl)-methanesulfonamide]	0.37 nM	285 to 288 °C	–	–
COc1c(-c2nc3cc(NS(C)(=O)=O)ccc3o2)cc(N2CCCNC2=O)cc1C(C)(C)C [Compound I-24, N-{2-[3-tert-Butyl-2-methoxy-5-(2-oxo-tetrahydro-pyrimidin-1-yl)-phenyl]-benzooxazol-5-yl}-methanesulfonamide]	63.3 nM	–	–	–
COc1c(CCc2ccc(NS(C)(=O)=O)cc2)cc(N2C(=O)NC(C)C2=O)cc1C(C)(C)C (centres unmarked) [Compound I-25]	19 nM	211 to 212 °C	–	–
COc1c(/C=C/c2ccc(NS(C)(=O)=O)cc2)cc(N2CCCNS2(=O)=O)cc1C(C)(C)C [Compound I-26, N-(4-{(E)-2-[3-tert-Butyl-5-(1,1-dioxo-1λ^6-[1,2,6]thiadiazinan-2-yl)-2-methoxy-phenyl]-vinyl}-phenyl)-methanesulfonamide]	5.1 nM	255 to 257 °C	–	–
COc1c(/C=C/c2ccc(NS(C)(=O)=O)cc2)cc(-n2c(C)n[nH]c2=O)cc1C(C)(C)C [Compound I-27, N-(4-{(E)-2-[3-tert-Butyl-2-methoxy-5-(3-methyl-5-oxo-1,5-dihydro-[1,2,4]triazol-4-yl)-phenyl]-vinyl}-phenyl)-methanesulfonamide]	0.3 nM	289 to 291 °C	–	–
CC(C)(C)c1cc(/C=C/c2ccc(NS(C)(=O)=O)cc2)cc(N2CCCNC2=O)c1 [I-I, N-(4-{(E)-2-[3-tert-Butyl-5-(2-oxo-tetrahydro-pyrimidin-1-yl)-phenyl]-vinyl}-phenyl)-methanesulfonamide]	15 nM	235 to 237 °C	–	–
NC(=O)c1ncn([C@@H]2O[C@H](CO)[C@@H](O)[C@H]2O)n1 [ribavirin, 1-((2R,3R,4S,5R)-3,4-Dihydroxy-5-hydroxymethyl-tetrahydro-furan-2-yl)-1H-[1,2,4]triazole-3-carboxylic acid amide]	–	–	40 % of patients	does not lower serum levels of HCV-RNA
